Measured values: article PMC6383986, “Fragment-Based Covalent Ligand Screening Enables Rapid Discovery of Inhibitors for the RBR E3 Ubiquitin Ligase HOIP” (Journal of the American Chemical Society, 2019)
“Also recorded” adds a separate entry of the source.

How the values were obtained:
[1] = target: T1, HOIP RBR C885S (Homo sapiens, UniProt Q96EP0, C885S); assay: Protein LC-MS labeling of active-site mutant; type: binding; details: 200 μM compound (100-fold excess), 2 μM protein, 4 h
T1 construct: 697-1072; made in house; host or cells: E. coli BL21-GOLD(DE3)
Protocol: negative control and compound solutions data points were acquired after 0.5, 4, and 24 h […]
Protocol as described above, using the HOIP RBR C885S mutant (155 µM stock solution in 50 mM HEPES, 150 mM NaCl, 1 mM DTT, pH 7.5) and 50 mM HEPES, 150 mM NaCl, pH 7.5 buffer.
The stock solution at 4 µM (25 µL per sample, final concentration 2 µM, 87 µg/mL), was mixed with buffer (24.5 µL) and compound (5) (0.5 µL of 2, and 20 mM stock solutions in DMSO, giving a final concentration of 20 and 200 µM respectively, and 1% DMSO). Data points were acquired after 0.5 and 4 h incubation.
The HOIP RBR domain wild type was diluted with 50 mM HEPES, 150 mM NaCl, pH 7.5 buffer to afford a new stock solution at 2.02 µM, which was aliquoted into 10 × 297 µL. […]
thawed individually and analyzed by protein mass spectrometry as described above. The total ion counts (TICs) detected for unlabelled HOIP and labelled HOIP-(5) conjugate within a peak elution range of 10 seconds were used to calculate the ratio of labelled HOIP RBR over total HOIP RBR content for each sample. The averaged data from 3 independent experiments were analyzed according to a two-step model of reversible ligand binding followed by irreversible covalent modification (Supplementary Figure S2A),11 fitted to a single exponential equation (equation 1, Supplementary Figure S2B) using GraFit (v.7). […]

[2] = tested on: NF-κB activation in HEK293T cells overexpressing full length HOIP, HOIL-1L, and SHARPIN; assay: NF-κB Luciferase reporter assay; type: cell-based; details: Homo sapiens, HEK-293T; overnight (17 h) treatment; estimated; read-out: IC50, inhibition of NF-κB activation
Protocol: suspensions were agitated at 4 °C overnight. The supernatants were removed and kept on ice, and the beads were washed with wash buffer (2 × 0.5 mL), PBS (2 × 0.5 mL), and 50 mM HEPES, 150 mM NaCl, pH 7.5 buffer (2 × 0.5 mL).
A polyubiquitination assay master mix was prepared by mixing E1, UbcH7, ubiquitin, MgCl2, in buffer (50 mM HEPES, 150 mM NaCl, pH 7.5). The solution (30 µL per sample) was added to the beads, and lastly ATP (0.6 µL of 100 mM stock) was added to initiate the reaction. Final concentrations were E1 (0.2 µM), UbcH7 E2 (1 µM), ubiquitin (10 µM), MgCl2 (4 mM), ATP (2 mM). The vials were incubated (Eppendorf Thermomixer) at 25 °C, 900 rpm for 1.5 h. […] All samples were analyzed by SDS PAGE and Western Blot (Figure 6C and Supplementary Figure S13) as described in sections 4.5 and 4.6. […]
Reporter assays: After incubating the plates for 17 h, Firefly and Renilla Luciferase activity was analyzed using the Dual-Luciferase® Reporter Assay System (Promega) and a BertholdTech […]
with Mikrowin 2000 software version 4.41: using its injectors to inject 100 µL LAR II and 100 µL Stop&Glo (see manufacturer’s instructions; Promega #E1960). NF-κB regulated luciferase activity was first normalized to Renilla luciferase activity and then the fold activation relative to cells transfected with empty vector calculated. […]
reader. […]

T1 sequence (Q96EP0 697-1072 C885S): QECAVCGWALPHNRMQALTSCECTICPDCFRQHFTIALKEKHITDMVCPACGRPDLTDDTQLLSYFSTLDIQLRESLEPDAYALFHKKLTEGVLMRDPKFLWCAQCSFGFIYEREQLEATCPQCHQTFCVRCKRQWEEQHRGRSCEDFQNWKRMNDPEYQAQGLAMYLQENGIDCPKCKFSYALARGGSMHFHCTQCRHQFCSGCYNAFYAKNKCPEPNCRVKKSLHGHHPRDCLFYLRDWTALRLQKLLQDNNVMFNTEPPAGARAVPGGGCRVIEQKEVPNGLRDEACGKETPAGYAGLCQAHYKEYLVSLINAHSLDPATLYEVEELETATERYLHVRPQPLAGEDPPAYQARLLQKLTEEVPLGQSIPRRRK

Q: Which “labeling of HOIP RBR C885S” value [1] does the source give for `COC(=O)/C=C/CNC(=O)c1cc2c([nH]c1=O)CCC2` [Compound 5] here?
A: Its value is “did not result in protein labeling; also recorded: not labeled”.

Q: `COC(=O)/C=C/CNC(=O)c1cc2c([nH]c1=O)CCCC2` [Compound 11a] was tested. Which IC50 [2] did it give?
A: Its IC50 is 37 ± 4 µM.
